This assay has as its target Human immunodeficiency virus type 1 protease (Human immunodeficiency virus 1) (UniProt Q72874). In words: Concentration which reduced the concentration of HIV viral RNA by 90% from the level measured in an untreated infected culture. It is filed as functional.

Compound `Nc1cccc(N2C(=O)N(c3cccc(N)c3)[C@H](Cc3ccccc3)[C@H](O)[C@H]2CCc2ccccc2)c1` registered a Log 1/IC90 of 6.44.
In turn, `CNc1cccc(N2C(=O)N(c3cccc(NC)c3)[C@H](Cc3ccccc3)[C@H](O)[C@H]2CCc2ccccc2)c1` had a Log 1/IC90 of 6.48.
`O=C1N(c2ccccc2)[C@H](CCc2ccccc2)[C@@H](O)[C@@H](Cc2ccccc2)N1c1ccccc1` showed a Log 1/IC90 of 5.55.
In turn, `O=C1N(c2ccc(CO)cc2)[C@H](CCc2ccccc2)[C@@H](O)[C@@H](Cc2ccccc2)N1c1ccc(CO)cc1` had a Log 1/IC90 of 5.44.
On to `Nc1cc(N2C(=O)N(c3ccc(F)c(N)c3)[C@H](Cc3ccccc3)[C@H](O)[C@H]2CCc2ccccc2)ccc1F`, for which the Log 1/IC90 is 7.44.
The result for `O=C1N(c2cccc(CO)c2)[C@H](CCc2ccccc2)[C@@H](O)[C@@H](Cc2ccccc2)N1c1cccc(CO)c1` reads 6.96; that for `NC(=O)c1cc(N2C(=O)N(c3ccc(F)c(C(N)=O)c3)[C@H](Cc3ccccc3)[C@H](O)[C@H]2CCc2ccccc2)ccc1F`, 6.31; that for `O=C1N(c2cccc(O)c2)[C@H](CCc2ccccc2)[C@@H](O)[C@@H](Cc2ccccc2)N1c1cccc(O)c1`, 6.94.
In turn, `N=C(NO)c1cccc(N2C(=O)N(c3cccc(/C(N)=C\O)c3)[C@H](Cc3ccccc3)[C@H](O)[C@H]2CCc2ccccc2)c1` gave a Log 1/IC90 of 7.31.
As for `N#Cc1cccc(N2C(=O)N(c3cccc(C#N)c3)[C@H](Cc3ccccc3)[C@H](O)[C@H]2CCc2ccccc2)c1`, the Log 1/IC90 was determined as 5.8.
The figure for `Nc1ccc(N2C(=O)N(c3ccc(N)c(F)c3)[C@H](Cc3ccccc3)[C@H](O)[C@H]2CCc2ccccc2)cc1F` is 6.27.
Regarding `NC(=O)c1cccc(N2C(=O)N(c3cccc(C(N)=O)c3)[C@H](Cc3ccccc3)[C@H](O)[C@H]2CCc2ccccc2)c1`, the Log 1/IC90 worked out at 7.46.

The values are drawn from ChEMBL document CHEMBL1142783, “Hydrophobicity in the design of P2/P2' tetrahydropyrimidinone HIV protease inhibitors” (Bioorg Med Chem Lett, 2005).
